From ChEMBL document CHEMBL2046386, “Potent and selective aminopyrimidine-based B-Raf inhibitors with favorable physicochemical and pharmacokinetic properties” (J Med Chem, 2012)
Converted amounts (≈) assume the structure as drawn.

Legend:
[1] = biological target: T1, Serine/threonine-protein kinase B-raf (Homo sapiens, UniProt P15056, V600E); assay: Inhibition of His6X-tagged human B-raf V600E mutant expressed in baculovirus infected insect cells coexpressing […] using [gamma33P]ATP after 60 mins by scintillation counting
[2] = biological target: T1, Serine/threonine-protein kinase B-raf; assay: Inhibition of B-raf V600E mutant-mediated Erk phosphorylation in human MALM-3M cells by fluorometric analysis; type: cell-based
Mus musculus = assay: Toxicity in NCr nude mouse xenografted with human COLO205 cells expressing B-raf V600E mutant assessed as adverse effects; type: organism-based, COLO 205; details: in vivo
[3] = Dissociation constant, pKa of the compound at basic pH; type: physicochemical
[4] = Thermodynamic solubility of the compound at 0.5 mg/ml after 24 hrs by shake flask method at pH 1.2; type: physicochemical; details: buffer, read-out: Therm_solubility
[5] = Thermodynamic solubility of the compound at 0.5 mg/ml after 24 hrs by shake flask method at pH 6.5; type: physicochemical; details: buffer, read-out: Therm_solubility
[6] = Clearance in mouse at 2.5 mg/kg, iv; type: ADME, organism-based; parameters: dose 2.5 mg/kg, route intravenous; details: in vivo
[7] = Volume of distribution at steady state in mouse at 2.5 mg/kg, iv; type: ADME, organism-based; parameters: dose 2.5 mg/kg, route intravenous; details: in vivo, read-out: Vdss
[8] = AUC in mouse at 30 mg/kg, po dosed in 0.5% methylcellulose/0.2% Tween 80/99.3% water; type: ADME, organism-based; parameters: dose 30 mg/kg, route oral; details: in vivo
[9] = Oral bioavailability in mouse at 30 mg/kg; type: ADME, organism-based; details: in vivo
[10] = Plasma protein binding in mouse; type: ADME, cell-free; details: read-out: PPB (converted)
[11] = Lipophilicity, log P of the compound; type: physicochemical; details: octanol/water
[12] = Cmax in mouse at 1 mg/kg, po dosed as crystalline suspension in 20%HPBCD vehicle (20% hydroxypropyl-beta-cyclodextrin/80% water); type: ADME, organism-based; parameters: dose 1 mg/kg, route oral; details: in vivo
[13] = AUC in mouse at 1 mg/kg, po dosed as crystalline suspension in 20%HPBCD vehicle (20% hydroxypropyl-beta-cyclodextrin/80% water); type: ADME, organism-based; parameters: dose 1 mg/kg, route oral; details: plasma
[14] = Oral bioavailability in mouse at 1 mg/kg dosed as crystalline suspension in 20%HPBCD vehicle (20% hydroxypropyl-beta-cyclodextrin/80% water); type: ADME, organism-based; details: in vivo
[15] = Cmax in mouse at 10 mg/kg, po dosed as crystalline suspension in 20%HPBCD vehicle (20% hydroxypropyl-beta-cyclodextrin/80% water); type: ADME, organism-based; parameters: dose 10 mg/kg, route oral; details: in vivo
[16] = AUC in mouse at 10 mg/kg, po dosed as crystalline suspension in 20%HPBCD vehicle (20% hydroxypropyl-beta-cyclodextrin/80% water); type: ADME, organism-based; parameters: dose 10 mg/kg, route oral; details: plasma
[17] = Oral bioavailability in mouse at 10 mg/kg dosed as crystalline suspension in 20%HPBCD vehicle (20% hydroxypropyl-beta-cyclodextrin/80% water); type: ADME, organism-based; details: in vivo
[18] = Cmax in mouse at 30 mg/kg, po dosed as crystalline suspension in 20%HPBCD vehicle (20% hydroxypropyl-beta-cyclodextrin/80% water); type: ADME, organism-based; parameters: dose 30 mg/kg, route oral; details: in vivo
[19] = Cmax in mouse at 50 mg/kg, po dosed as crystalline suspension in 20%HPBCD vehicle (20% hydroxypropyl-beta-cyclodextrin/80% water); type: ADME, organism-based; parameters: dose 50 mg/kg, route oral; details: in vivo
[20] = AUC in mouse at 50 mg/kg, po dosed as crystalline suspension in 20%HPBCD vehicle (20% hydroxypropyl-beta-cyclodextrin/80% water); type: ADME, organism-based; parameters: dose 50 mg/kg, route oral; details: plasma
Cytochrome P450 2C9 = Cytochrome P450 2C9 (Homo sapiens, UniProt P11712); assay: Inhibition of CYP2C9; type: ADME
[21] = Inhibition of cytochrome P450; type: ADME
[22] = biological target: Voltage-gated inwardly rectifying potassium channel KCNH2 (Homo sapiens, UniProt Q12809); assay: Inhibition of human Erg
Salmonella typhimurium = assay: Induction of mutagenesis in Salmonella typhimurium by Ames test; type: toxicity, organism-based; details: salmonella enterica subsp. enterica serovar typhimurium
COLO 205 [23] = assay: Antitumor activity against human COLO205 cells expressing B-raf V600E mutant xenografted in po dosed NCr nude mouse assessed as decrease in tumor volume administered once daily for 21 days measured twice a week up to 21 days; type: functional
[24] = Time-dependent inhibition of cytochrome P450; type: ADME
[25] = biological target: T1, Serine/threonine-protein kinase B-raf; assay: Inhibition of His6X-tagged human B-raf V600E mutant expressed in baculovirus infected insect cells coexpressing […] using [gamma33P]ATP after 60 mins by scintillation counting in presence of 1 mM ATP
[26] = AUC in mouse at 30 mg/kg, po dosed as crystalline suspension in 20%HPBCD vehicle (20% hydroxypropyl-beta-cyclodextrin/80% water); type: ADME, organism-based; parameters: dose 30 mg/kg, route oral; details: plasma
[27] = Oral bioavailability in mouse at 30 mg/kg dosed as crystalline suspension in 20%HPBCD vehicle (20% hydroxypropyl-beta-cyclodextrin/80% water); type: ADME, organism-based; details: in vivo
[28] = biological target: Serine/threonine-protein kinase B-raf (Homo sapiens, UniProt P15056); assay: Inhibition of wild type B-raf in presence of 1 mM ATP
[29] = biological target: RAF proto-oncogene serine/threonine-protein kinase (Homo sapiens, UniProt P04049); assay: Inhibition of wild type C-raf in presence of 1 mM ATP
Homo sapiens [30] = species: Homo sapiens; assay: Selectivity index, ratio of IC50 for wild-type B-raf to IC50 for human Braf V600E mutant
Homo sapiens [31] = species: Homo sapiens; assay: Selectivity index, ratio of IC50 for wild-type C-raf to IC50 for human Braf V600E mutant
[32] = Antiproliferative activity against human A375.X1 cells expressing B-raf V600E mutant; type: functional, cell-based
COLO 205 [33] = assay: Antiproliferative activity against human COLO205 cells expressing B-raf V600E mutant; type: functional, cell-based
HT-29 = assay: Antiproliferative activity against human HT-29 cells expressing B-raf V600E mutant and high level of EGFR; type: functional, cell-based
RKO = assay: Antiproliferative activity against PTEN-deficient human RKO cells expressing B-raf V600E mutant and high level of EGFR; type: functional, cell-based
NCI-H226 = assay: Antiproliferative activity against human NCI-H226 cells expressing wild-type B-raf; type: functional, cell-based
[34] = Clearance in rat at 1 mg/kg, iv dosed as crystalline suspension in 20%HPBCD vehicle (20% hydroxypropyl-beta-cyclodextrin/80% water); type: ADME, organism-based; parameters: dose 1 mg/kg, route intravenous; details: in vivo
[35] = Volume of distribution at steady state in rat at 1 mg/kg, iv dosed as crystalline suspension in 20%HPBCD vehicle (20% hydroxypropyl-beta-cyclodextrin/80% water); type: ADME, organism-based; parameters: dose 1 mg/kg, route intravenous; details: in vivo, read-out: Vdss
[36] = Cmax in rat at 5 mg/kg, po dosed as crystalline suspension in 20%HPBCD vehicle (20% hydroxypropyl-beta-cyclodextrin/80% water); type: ADME, organism-based; parameters: dose 5 mg/kg, route oral; details: in vivo
[37] = AUC in rat at 5 mg/kg, po dosed as crystalline suspension in 20%HPBCD vehicle (20% hydroxypropyl-beta-cyclodextrin/80% water); type: ADME, organism-based; parameters: dose 5 mg/kg, route oral; details: plasma
[38] = Oral bioavailability in rat at 5 mg/kg dosed as crystalline suspension in 20%HPBCD vehicle (20% hydroxypropyl-beta-cyclodextrin/80% water); type: ADME, organism-based; details: in vivo
[39] = Cmax in rat at 25 mg/kg, po dosed as crystalline suspension in 20%HPBCD vehicle (20% hydroxypropyl-beta-cyclodextrin/80% water); type: ADME, organism-based; parameters: dose 25 mg/kg, route oral; details: in vivo
[40] = AUC in rat at 25 mg/kg, po dosed as crystalline suspension in 20%HPBCD vehicle (20% hydroxypropyl-beta-cyclodextrin/80% water); type: ADME, organism-based; parameters: dose 25 mg/kg, route oral; details: plasma
[41] = Oral bioavailability in rat at 25 mg/kg dosed as crystalline suspension in 20%HPBCD vehicle (20% hydroxypropyl-beta-cyclodextrin/80% water); type: ADME, organism-based; details: in vivo
[42] = Oral bioavailability in mouse at 30 mg/kg dosed as crystalline suspension in 20%HPBCD vehicle (20% hydroxypropyl-beta-cyclodextrin/80% water); details: in vivo
[43] = Mus musculus, COLO 205, po, 504 h

T1 sequence (P15056 2-766 V600E limits assumed): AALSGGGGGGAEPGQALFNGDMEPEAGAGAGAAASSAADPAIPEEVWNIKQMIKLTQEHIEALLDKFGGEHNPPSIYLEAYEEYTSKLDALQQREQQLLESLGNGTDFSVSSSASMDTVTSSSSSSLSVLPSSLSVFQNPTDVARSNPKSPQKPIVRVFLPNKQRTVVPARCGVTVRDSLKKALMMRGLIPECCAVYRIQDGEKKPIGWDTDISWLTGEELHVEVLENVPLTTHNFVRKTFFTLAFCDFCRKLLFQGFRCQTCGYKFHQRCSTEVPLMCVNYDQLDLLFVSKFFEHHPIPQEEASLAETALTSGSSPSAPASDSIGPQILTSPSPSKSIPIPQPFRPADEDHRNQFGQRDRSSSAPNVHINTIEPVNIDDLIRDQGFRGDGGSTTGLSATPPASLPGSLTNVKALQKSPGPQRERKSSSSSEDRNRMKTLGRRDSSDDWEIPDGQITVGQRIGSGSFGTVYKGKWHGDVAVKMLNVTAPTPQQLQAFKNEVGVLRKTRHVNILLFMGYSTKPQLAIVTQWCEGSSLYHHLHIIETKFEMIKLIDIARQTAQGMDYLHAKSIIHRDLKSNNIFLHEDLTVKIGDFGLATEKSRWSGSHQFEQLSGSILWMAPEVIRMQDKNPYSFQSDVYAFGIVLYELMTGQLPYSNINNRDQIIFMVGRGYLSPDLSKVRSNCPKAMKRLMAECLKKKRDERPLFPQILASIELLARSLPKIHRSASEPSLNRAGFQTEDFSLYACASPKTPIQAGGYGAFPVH
Chain of Serine/threonine-protein kinase B-raf (Homo sapiens, UniProt P15056) (P15056 whole entry): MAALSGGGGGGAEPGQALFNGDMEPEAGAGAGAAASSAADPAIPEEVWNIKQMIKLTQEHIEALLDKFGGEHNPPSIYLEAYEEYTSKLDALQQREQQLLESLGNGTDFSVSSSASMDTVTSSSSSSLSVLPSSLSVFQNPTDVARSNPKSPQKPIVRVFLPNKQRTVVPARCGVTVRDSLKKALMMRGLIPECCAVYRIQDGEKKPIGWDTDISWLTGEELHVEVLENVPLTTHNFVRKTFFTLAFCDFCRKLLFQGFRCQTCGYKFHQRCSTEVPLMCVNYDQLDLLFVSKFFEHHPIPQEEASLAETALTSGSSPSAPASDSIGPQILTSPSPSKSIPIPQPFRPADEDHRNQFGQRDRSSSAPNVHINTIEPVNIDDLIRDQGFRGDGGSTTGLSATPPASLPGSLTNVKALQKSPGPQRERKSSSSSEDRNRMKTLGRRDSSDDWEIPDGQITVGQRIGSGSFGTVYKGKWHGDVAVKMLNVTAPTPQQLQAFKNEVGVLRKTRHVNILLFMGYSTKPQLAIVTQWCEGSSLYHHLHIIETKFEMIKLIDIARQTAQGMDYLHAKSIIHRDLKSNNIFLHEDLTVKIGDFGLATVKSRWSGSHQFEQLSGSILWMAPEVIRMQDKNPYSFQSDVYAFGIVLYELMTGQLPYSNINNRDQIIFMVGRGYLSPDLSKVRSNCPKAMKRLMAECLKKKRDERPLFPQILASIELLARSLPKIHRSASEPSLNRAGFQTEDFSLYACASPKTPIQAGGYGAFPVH
Chain of Voltage-gated inwardly rectifying potassium channel KCNH2 (Q12809 whole entry): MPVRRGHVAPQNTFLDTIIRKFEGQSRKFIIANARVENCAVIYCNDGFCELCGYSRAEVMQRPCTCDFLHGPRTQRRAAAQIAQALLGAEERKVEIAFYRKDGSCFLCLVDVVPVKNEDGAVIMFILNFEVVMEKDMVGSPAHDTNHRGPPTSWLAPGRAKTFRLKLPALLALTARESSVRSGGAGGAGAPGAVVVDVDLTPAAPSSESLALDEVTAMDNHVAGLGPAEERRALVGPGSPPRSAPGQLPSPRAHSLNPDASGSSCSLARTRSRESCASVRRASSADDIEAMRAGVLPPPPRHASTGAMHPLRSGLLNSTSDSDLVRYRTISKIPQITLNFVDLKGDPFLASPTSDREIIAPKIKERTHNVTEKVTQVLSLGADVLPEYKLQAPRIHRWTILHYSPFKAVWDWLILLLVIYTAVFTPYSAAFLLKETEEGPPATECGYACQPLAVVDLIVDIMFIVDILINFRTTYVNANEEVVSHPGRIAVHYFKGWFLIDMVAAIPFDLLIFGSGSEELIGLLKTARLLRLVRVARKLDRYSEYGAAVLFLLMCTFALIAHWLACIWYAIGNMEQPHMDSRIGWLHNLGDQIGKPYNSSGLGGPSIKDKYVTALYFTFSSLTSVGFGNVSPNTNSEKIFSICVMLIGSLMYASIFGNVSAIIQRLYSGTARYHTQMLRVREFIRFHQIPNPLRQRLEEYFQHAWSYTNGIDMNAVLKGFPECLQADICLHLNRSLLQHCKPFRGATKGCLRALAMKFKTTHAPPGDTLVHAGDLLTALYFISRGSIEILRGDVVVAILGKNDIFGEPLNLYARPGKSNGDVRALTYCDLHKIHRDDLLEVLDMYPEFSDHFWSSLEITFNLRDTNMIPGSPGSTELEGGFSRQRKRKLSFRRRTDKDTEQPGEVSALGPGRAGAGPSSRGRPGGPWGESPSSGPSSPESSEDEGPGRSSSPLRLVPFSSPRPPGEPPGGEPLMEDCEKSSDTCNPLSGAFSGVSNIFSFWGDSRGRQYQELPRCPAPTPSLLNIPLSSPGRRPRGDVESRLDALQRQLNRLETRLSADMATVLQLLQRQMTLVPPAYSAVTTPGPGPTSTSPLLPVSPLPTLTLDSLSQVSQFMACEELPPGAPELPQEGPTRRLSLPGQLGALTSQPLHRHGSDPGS
Chain of Cytochrome P450 2C9 (P11712 whole entry): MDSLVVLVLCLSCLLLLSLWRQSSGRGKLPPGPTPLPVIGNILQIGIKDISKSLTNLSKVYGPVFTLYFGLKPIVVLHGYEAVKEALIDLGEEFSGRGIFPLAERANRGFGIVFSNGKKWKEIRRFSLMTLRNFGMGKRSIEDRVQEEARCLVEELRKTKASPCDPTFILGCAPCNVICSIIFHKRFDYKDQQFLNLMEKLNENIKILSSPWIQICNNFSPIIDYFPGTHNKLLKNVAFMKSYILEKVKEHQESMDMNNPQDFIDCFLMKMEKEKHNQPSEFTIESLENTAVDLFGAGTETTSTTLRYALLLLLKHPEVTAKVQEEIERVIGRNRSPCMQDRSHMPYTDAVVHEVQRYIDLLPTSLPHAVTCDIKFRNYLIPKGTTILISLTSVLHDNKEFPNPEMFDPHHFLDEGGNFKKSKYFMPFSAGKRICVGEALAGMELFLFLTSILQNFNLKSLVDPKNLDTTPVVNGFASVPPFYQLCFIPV
Chain of RAF proto-oncogene serine/threonine-protein kinase (P04049 whole entry): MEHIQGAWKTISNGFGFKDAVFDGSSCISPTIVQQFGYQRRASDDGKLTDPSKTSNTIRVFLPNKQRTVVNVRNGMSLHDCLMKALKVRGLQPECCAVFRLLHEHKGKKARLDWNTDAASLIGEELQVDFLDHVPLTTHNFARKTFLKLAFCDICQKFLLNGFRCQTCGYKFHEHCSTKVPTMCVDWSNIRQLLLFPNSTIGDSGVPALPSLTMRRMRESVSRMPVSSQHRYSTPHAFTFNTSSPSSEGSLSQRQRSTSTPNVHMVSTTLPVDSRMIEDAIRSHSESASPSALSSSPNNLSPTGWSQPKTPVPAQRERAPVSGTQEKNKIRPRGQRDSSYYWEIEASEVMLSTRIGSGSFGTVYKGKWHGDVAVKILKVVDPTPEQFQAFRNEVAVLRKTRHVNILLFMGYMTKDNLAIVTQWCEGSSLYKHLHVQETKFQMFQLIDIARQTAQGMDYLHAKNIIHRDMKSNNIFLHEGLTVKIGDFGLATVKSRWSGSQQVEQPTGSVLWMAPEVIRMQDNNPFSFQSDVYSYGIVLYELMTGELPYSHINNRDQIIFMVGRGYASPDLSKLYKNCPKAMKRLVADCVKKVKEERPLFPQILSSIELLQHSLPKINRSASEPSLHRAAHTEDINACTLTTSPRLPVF

Compound: CCCS(=O)(=O)Nc1ccc(F)c(NC(=O)c2csc3c(N)ncnc23)c1Cl
- IC50 [1]: 0.0011 µM
- IC50 [2]: 0.015 µM

Compound: Nc1ncnc2c(C(=O)Nc3c(Cl)ccc(NS(=O)(=O)CCCF)c3F)cccc12
- IC50 [1]: 0.00011 µM
- IC50 [2]: 0.0025 µM

Compound: CCCS(=O)(=O)Nc1ccc(F)c(NC(=O)c2csc3c(N)ncnc23)c1F
- Activity (Mus musculus): Non-toxic
- IC50 [1]: 0.0025 µM
- IC50 [2]: 0.015 µM
- pKa [3]: 3.6
- solubility thermodynamic at 24 h [4]: > 1000 µg/mL
- solubility thermodynamic at 24 h [5]: 5 µg/mL (≈ 11.7 µM)
- clearance [6]: 1 mL/min/kg
- Vd [7]: 0.2 L/kg
- AUC [8]: 874 µM·h
- bioavailability [9]: 100%
- fraction unbound [10]: 0.016
- logP [11]: 2.7

Compound: Nc1ncnc2c(C(=O)Nc3c(Cl)ccc(NS(=O)(=O)CCCF)c3F)csc12
- Cmax [12]: 7.93 µM
- AUC [13]: 84 µM·h
- bioavailability [14]: > 100%
- Cmax [15]: 73 µM
- AUC [16]: 867 µM·h
- bioavailability [17]: > 100%
- Cmax [18]: 162 µM
- Cmax [19]: 249 µM
- AUC [20]: 3250 µM·h
- IC50 (Cytochrome P450 2C9): 9 µM
- IC50 [21]: > 25 µM
- inhibition (INH) [22]: Not Active
- Activity (Salmonella typhimurium): Non-toxic
- TGI (COLO 205 [23]): 130%
- ED50 (COLO 205 [23]; [43]): 1.1 mg/kg
- ED90 (COLO 205 [23]; [43]): 6.2 mg/kg
- Activity (Mus musculus): Non-toxic
- inhibition (INH) [24]: Not Active
- IC50 [25]: 0.002 µM
- AUC [26]: 1680 µM·h
- bioavailability [27]: > 100%
- IC50 [1]: 0.00018 µM
- IC50 [2]: 0.0046 µM
- pKa [3]: 3.6
- solubility thermodynamic at 24 h [4]: 700 µg/mL (≈ 1520 µM)
- solubility thermodynamic at 24 h [5]: 10 µg/mL (≈ 21.6 µM)
- clearance [6]: 0.79 mL/min/kg
- Vd [7]: 0.12 L/kg
- fraction unbound [10]: 0.03
- logP [11]: 3.6
- IC50 [28]: 0.022 µM
- IC50 [29]: 0.073 µM
- Ratio IC50 (Homo sapiens [30]): 11
- Ratio IC50 (Homo sapiens [31]): 152
- EC50 [32]: 0.002 µM
- EC50 (COLO 205 [33]): 0.005 µM
- EC50 (HT-29): 0.024 µM
- EC50 (RKO): 2.31 µM
- EC50 (NCI-H226): > 10 µM
- clearance [34]: 0.19 mL/min/kg
- Vd [35]: 0.14 L/kg
- Cmax [36]: 44.5 µM
- AUC [37]: 651 µM·h
- bioavailability [38]: 68%
- Cmax [39]: 201 µM
- AUC [40]: 2970 µM·h
- bioavailability [41]: 62%
- bioavailability [42]: > 100%

Compound: CCCS(=O)(=O)Nc1ccc(F)c(NC(=O)Nc2cc(N)ncn2)c1F
- IC50 [2]: 0.438 µM

Compound: CCCS(=O)(=O)Nc1ccc(F)c(NC(=O)Nc2ncnc3[nH]ncc23)c1F
- IC50 [1]: 0.0056 µM
- IC50 [2]: 0.088 µM
- solubility thermodynamic at 24 h [4]: 7 µg/mL (≈ 17 µM)

Compound: CCCS(=O)(=O)Nc1ccc(F)c(NC(=O)N(C)c2cc(N)ncn2)c1F
- IC50 [2]: 0.24 µM

Compound: CCCS(=O)(=O)Nc1ccc(F)c(NC(=O)Nc2cc(NC)ncn2)c1F
- IC50 [1]: 0.036 µM
- IC50 [2]: 0.168 µM
- solubility thermodynamic at 24 h [4]: 900 µg/mL (≈ 2250 µM)
